Data reported in article PMC5789083, “Mechanisms driving the antibacterial and antibiofilm properties of Hp1404 and its analogue peptides against multidrug-resistant Pseudomonas aeruginosa” (Scientific Reports, 2018).
Where two headings read alike, the source gives them in different places. Where no end group is shown, it is not given here.

What was measured:
[1] = test system: Pseudomonas aeruginosa and MRPA strains; test: microbe, parasite or virus in culture; type: cell-based; settings: broth micro-dilution, 37 °C, 18–24 h
Excerpt: Gram-negative (Pseudomonas aeruginosa ATCC 27853) bacterial strains were obtained from the ATCC (American Type Culture Collection; Manassas, VA, USA). Multidrug-resistant strains (Pseudomonas aeruginosa 138, 431, 434, 557, 559, 778, 1034, 1162, 3290, 3399, 3592, 3904, 4007, 4319, 4891, 5018, and 671973) were obtained from the Chonnam National University Hospital (Gwangju, South Korea).
(§1) We examined the activity of each peptide against both pseudomonas aeruginosa and multidrug-resistant strains. The minimal inhibitory concentrations (MICs) of peptides were determined using the broth micro-dilution assay as described previously. Briefly, bacterial strains were cultivated with shaking overnight at 37 °C. The next day, they were diluted to a density of 2 × 10^5 CFU/mL with growth medium. Peptides were serially diluted with 10 mM sodium phosphate buffer. 50 µL bacterial aliquots were mixed with an equal volume of peptide solution, and incubated at 37 °C for 18–24 h. Inhibition of bacterial growth was determined by measuring the absorbance at 600 nm using a Versa Max microplate reader (Molecular Devices, Sunnyvale, CA, USA). The test was performed in triplicate.

HaCaT cells = test: Cytotoxicity, MTT assay; type: cell-based, human; settings: 50 µM, 24 h
Method: We used the MTT assay to evaluate the toxicity of the peptides toward human skin epithelial cells (HaCaT) as previously described. Briefly, HaCaT cells were seeded at a density of 2 × 10^4 cells per well in 96-well microtiter plates in Dulbecco’s modified Eagle’s medium (DMEM) containing 10% foetal bovine serum (FBS) at 37 °C under 5% CO2 atmosphere. The next day, peptides were added to each well at various final concentrations (higher concentration of 200 µM). After 24 h incubation, culture supernatants were removed. 0.5 mg/mL MTT was added to each well, and the plates were incubated for 4 h at 37 °C. The medium was replaced by dimethyl sulfoxide (DMSO) to dissolve the formazan crystals formed in the wells. The absorbance at 570 nm was measured using a Versa-Max microplate ELISA reader (Molecular Devices). The viability rate was calculated using the following formula: Cell viability (%) = (absorbance of treated sample)/(absorbance of control) × 100.

[2] = test system: P. aeruginosa strains (biofilm formation); type: cell-based, Pseudomonas aeruginosa; settings: 24 h, 37 °C, crystal violet OD595
Method: To evaluate the ability of bacterial strains to form biofilms either in the absence or presence of peptides, antibiotic-susceptible P. aeruginosa (ATCC 27853), and various strains of MDR P. aeruginosa were cultured in nutrient broth (NB). […]. The biofilms were fixed with 100% methanol for 15 min, stained with 0.1% crystal violet (CV) for 1 h, and rinsed three times with distilled water (dH2O). After the addition of 95% ethanol, biofilm mass was quantified by measuring OD at 595 nm using a Versa-Max microplate ELISA reader (Molecular Devices). Results were expressed as the percentage of biofilm formed with respect to the control. […] All experiments were performed at least in triplicate.

P. aeruginosa 27853 = type: cell-based, Pseudomonas aeruginosa
Method: as §1
The effects of various cations on the antibacterial activities of the parental and analogue peptides against P. aeruginosa 27853 were evaluated as previously described. Bacteria was treated with peptides at a final concentration 25 µM in the presence of physiological salts such as NaCl (50 mM, 100 mM, and 150 mM), CaCl2 (1.25 mM, 2.5 mM, and 5 mM), or MgCl2 (0.5 mM, 1 mM, and 2 mM). The MIC values were determined as described above.

[3] = P. aeruginosa 138 (multidrug-resistant), triplicate
[4] = P. aeruginosa 431 (multidrug-resistant), triplicate
[5] = P. aeruginosa 434 (multidrug-resistant), triplicate
[6] = P. aeruginosa 557 (multidrug-resistant), triplicate
[7] = P. aeruginosa 559 (multidrug-resistant), triplicate
[8] = P. aeruginosa 778 (multidrug-resistant), triplicate
[9] = P. aeruginosa 1034 (multidrug-resistant), triplicate
[10] = P. aeruginosa 1162 (multidrug-resistant), triplicate
[11] = P. aeruginosa 3290 (multidrug-resistant), triplicate
[12] = P. aeruginosa 3399 (multidrug-resistant), triplicate
[13] = P. aeruginosa 3543 (multidrug-resistant), triplicate
[14] = P. aeruginosa 3592 (multidrug-resistant), triplicate
[15] = P. aeruginosa 3904 (multidrug-resistant), triplicate
[16] = P. aeruginosa 4007 (multidrug-resistant), triplicate
[17] = P. aeruginosa 4319 (multidrug-resistant), triplicate
[18] = P. aeruginosa 4891 (multidrug-resistant), triplicate
[19] = P. aeruginosa 5018 (multidrug-resistant), triplicate
[20] = P. aeruginosa 671973 (multidrug-resistant), triplicate
[21] = P. aeruginosa ATCC 27853, 2 × 10^5 CFU/mL, A600, triplicate
[22] = P. aeruginosa 27853, 5 × 10^5 CFU/mL, 0.2% glucose

Substance | MIC [1, 3] [µM] | MIC [1, 4] [µM] | MIC [1, 5] [µM] | MIC [1, 6] [µM] | MIC [1, 7] [µM] | MIC [1, 8] [µM] | MIC [1, 9] [µM] | MIC [1, 10] [µM] | MIC [1, 11] [µM] | MIC [1, 12] [µM] | MIC [1, 13] [µM] | MIC [1, 14] [µM] | MIC [1, 15] [µM] | MIC [1, 16] [µM] | MIC [1, 17] [µM] | MIC [1, 18] [µM] | MIC [1, 19] [µM] | MIC [1, 20] [µM] | MIC [1, 21] [µM] | survival rate of HaCaT cells (HaCaT cells) [%] | other results
Buforin2 [reference compound] | 12.5 | 6.25 | 6.25 | 6.25 | 12.5 | 12.5 | 6.25 | 12.5 | 6.25 | 12.5 | 12.5 | 3.13 | 6.25 | 12.5 | 12.5 | >25 | 12.5 | 3.13 | 25 | – | –
ILGKLWEGVKSI-NH2 [Hp1404-T1] | >25 | >25 | >25 | >25 | >25 | >25 | >25 | >25 | >25 | >25 | >25 | >25 | >25 | >25 | >25 | >25 | >25 | >25 | >25 | – | –
ILKKLLEGVKSI-NH2 [Hp1404-T1b] | >25 | >25 | 25 | >25 | >25 | >25 | >25 | >25 | >25 | >25 | >25 | 25 | >25 | >25 | >25 | >25 | >25 | >25 | >25 | – | –
ILKKLLKGVKSI-NH2 [Hp1404-T1c] | 25 | 12.5 | 6.25 | 25 | 25 | 6.25 | 6.25 | 3.13 | >25 | 3.13 | >25 | 6.25 | 6.25 | 12.5 | 6.25 | 6.25 | 3.13 | 6.25 | 3.13 | 51 | MBIC ([2]; P. aeruginosa 434): 50 µM; MBIC ([2]; P. aeruginosa 559): 25 µM; MBIC ([2]; P. aeruginosa 778): 25 µM; MBIC ([2]; P. aeruginosa 1034): 25 µM; MBIC ([2]; P. aeruginosa 1162): 12.5 µM; MBIC ([2]; P. aeruginosa 3399): 25 µM; MBIC ([2]; P. aeruginosa 3543): >50 µM; MBIC ([2]; P. aeruginosa 4007): >50 µM; MBIC [2, 22]: 25 µM; MIC (P. aeruginosa 27853; CaCl2 1.25 mM): >25 µM; MIC (P. aeruginosa 27853; CaCl2 2.5 mM): >25 µM; MIC (P. aeruginosa 27853; CaCl2 5 mM): >25 µM; MIC (P. aeruginosa 27853; MgCl2 0.5 mM): 12.5 µM; MIC (P. aeruginosa 27853; MgCl2 1 mM): 12.5 µM; MIC (P. aeruginosa 27853; MgCl2 2 mM): >25 µM; MIC (P. aeruginosa 27853; NaCl 50 mM): >25 µM; MIC (P. aeruginosa 27853; NaCl 100 mM): >25 µM; MIC (P. aeruginosa 27853; NaCl 150 mM): >25 µM
ILKKLLKKVKSI-NH2 [Hp1404-T1d] | 12.5 | 3.13 | 3.13 | 3.13 | 12.5 | 3.13 | 3.13 | 1.56 | 6.25 | 1.56 | 25 | 3.13 | 6.25 | 6.25 | 3.13 | 3.13 | 1.56 | 1.56 | 1.56 | 33 | MBIC ([2]; P. aeruginosa 434): 12.5 µM; MBIC ([2]; P. aeruginosa 559): 12.5 µM; MBIC ([2]; P. aeruginosa 778): 12.5 µM; MBIC ([2]; P. aeruginosa 1034): 12.5 µM; MBIC ([2]; P. aeruginosa 1162): 6.25 µM; MBIC ([2]; P. aeruginosa 3399): 25 µM; MBIC ([2]; P. aeruginosa 3543): >50 µM; MBIC ([2]; P. aeruginosa 4007): 50 µM; MBIC [2, 22]: 12.5 µM; MIC (P. aeruginosa 27853; CaCl2 1.25 mM): 12.5 µM; MIC (P. aeruginosa 27853; CaCl2 2.5 mM): 25 µM; MIC (P. aeruginosa 27853; CaCl2 5 mM): >25 µM; MIC (P. aeruginosa 27853; MgCl2 0.5 mM): 3.13 µM; MIC (P. aeruginosa 27853; MgCl2 1 mM): 6.25 µM; MIC (P. aeruginosa 27853; MgCl2 2 mM): 12.5 µM; MIC (P. aeruginosa 27853; NaCl 50 mM): 12.5 µM; MIC (P. aeruginosa 27853; NaCl 100 mM): 12.5 µM; MIC (P. aeruginosa 27853; NaCl 150 mM): 25 µM
ILKKLWEGVKSI-NH2 [Hp1404-T1a] | >25 | 25 | 25 | >25 | >25 | >25 | >25 | >25 | >25 | 25 | >25 | 12.5 | 25 | >25 | >25 | 25 | >25 | 25 | >25 | – | –
